Values of other authors in patent publication US9949928B2, “Biodegradable copolymers, systems including the copolymers, and methods of forming and using same” (The Regents of the University of Colorado, a body corporate, priority 2013, dated 2018).

Details: cited from earlier work

SMILES: CC1(C)O[C@@H]2C[C@H]3[C@@H]4CCC5=CC(=O)C=C[C@]5(C)[C@@]4(F)[C@@H](O)C[C@]3(C)[C@]2(C(=O)CO)O1 [triamcinolone acetonide]
- log P: 1.16
